From patent US20080031866A1, “METHOD FOR MODULATING THE PHARMACOKINETICS AND METABOLISM OF A THERAPEUTIC AGENT” (priority 2006, published 2008)
Read-outs that look alike come from different tables or passages of the source.

Tests used:
[1] = Intracolonic dosing with and without β-glucuronidase, catheterized rat; type: in vivo; details: for AUC / Cmax / concentration at 0 h / concentration at 0.25 h / concentration at 0.5 h / concentration at 1 h / concentration at 2 h / concentration at 3 h / concentration at 4 h / concentration at 5 h / concentration at 6 h: male, Sprague Dawley, rat, plasma; for AUC / Cmax / concentration at 0 h / concentration at 0.25 h / concentration at 0.5 h / concentration at 1 h / concentration at 2 h / concentration at 3 h / concentration at 4 h / concentration at 5 h / concentration at 6 h / AUC average ± standard deviation 0 to 6 hours: 10 mg/kg, rats N=6; for AUC: read-out: AUC average ± standard deviation 0 to 6 hours; for Cmax: read-out: Cmax average ± standard deviation; for concentration at 0 h / concentration at 0.25 h / concentration at 0.5 h / concentration at 1 h / concentration at 2 h / concentration at 3 h / concentration at 4 h / concentration at 5 h / concentration at 6 h: other: intracolonic
Description: A catheterized rat model was used in which the agent alone or agent and β-glucuronidase enzyme was administered intraduodenally or intracolonically. The intraduodenal and intracolonic dosing was intended to prevent the potential for loss of enzymatic activity when orally dosing the β-glucuronidase (e.g. by degradation in the stomach). […]
For the oral gavage dosing, Compound 1 was prepared in neat PEG-400. For the intraduodenal and intracolonic dosing solutions, Compound 1 was added to neat Tween 80, the mixture was sonicated for thirty minutes at 45° C. until Compound 1 was completely dissolved and then deionized (DI) water was added to form a solution consisting of 20% Tween 80 and 80% DI water by weight.
For the oral enzyme solutions, β-glucuronidase was added to the final formulation at a concentration of 57,600 units/ml.
For the intraduodenal and intracolonic dosing, male Sprague Dawley rats weighing 300-400 g were purchased from Charles River Labs. All rat experiments were conducted under approved animal protocols. The rats were catheterized at Charles River Labs and had one or more of the following chronic catheters for dosing and sampling: jugular/carotid, duodenal, and colonic. Rats were limited to only one GI catheter and one vascular catheter. For IV dosing, rats were purchased with jugular and carotid catheters for dosing in the jugular catheter and blood sampling through the carotid catheter. For intraduodenal/intracolonic dosing, rats had one of the GI catheters for dosing and a carotid catheter for blood sampling.
The surgeries were done two weeks prior to start of testing. Rats were fed 4 hours post dose administration. All rats were dosed without anesthesia and sacrificed at the end of the study.
A quantitative method for determining the amount of (6,7-dimethoxy-2,4-dihydro-indeno[1,2-c]pyrazol-3-yl)-(3-fluoro-phenyl)-amine Compound 1 and its major metabolites, glucuronide A (Cpd 1-GluA) and glucuronide B (Cpd 1-GluB) (see Scheme A) in rat plasma was developed using phenacetin as an internal standard. [drawing 1]
The two glucuronide conjugates were prepared and purified to permit accurate quantification of the levels of intact parent Compound 1 versus Cpd 1-GluA and Cpd 1-GluB. Each standard curve for Compound 1, Cpd 1-GluA, and Cpd 1-GluB generated from rat plasma included ten concentration levels. […] The quantitative procedure for each sample included: sample preparation, HPLC separation and mass spectrometry detection.
The rat plasma was prepared using protein precipitation techniques. Reference standards and quality control samples in rat plasma for Compound 1 were transferred to a 96 deep-well plate. The precipitation solution contained 100 ng/ml of internal standard in acetonitrile. 300 μl of precipitation solution were added to 100 μl of each standard, quality control and plasma sample. Samples were vortexed for 10 mins, then centrifuged at 4500 RPM for 10 mins. 10 μl of each sample were injected for LC/MS/MS analysis.
The HPLC column chosen for the bioanalysis was purchased from Thermo Electron (Hypersil BetaBasic C18, 5 cm×2.1 mm). The eluting solvents were composed of Solvent A: 0.1% formic acid in H2O and Solvent B: 0.1% formic acid in acetonitrile. A step gradient was used and flow rate was 300 μl/min. The total run time was 3.2 mins. Solvent B was increased from 35% at 0 min to 75% at 2.1 mins and decreased back to 35% at 2.2 mins. The retention times for Compound 1, phenacetin, Cpd 1-GluA and Cpd 1-GluB were 1.1 min, 0.9 min, 1.3 min, and 1.6 min, respectively.
API3000 with a Turbo Ionspray interface from Applied Biosystems was used for the detection of Compound 1, the internal standard and major metabolites. Electrospray ionization was performed in the positive ion mode heated nebulizer with a temperature of 300° C. LC/MS/MS chromatograms were acquired in MRM (multiple reaction mode). […]

[2] = system: β-glucuronidase derived from E. Coli; assay: In vitro incubation of Glu A and Glu B with β-glucuronidase; type: in vitro ADME; details: for Glucuronide remaining: 500 μM glucuronide, β-glucuronidase, 37° C.; for Stability in control samples without β-glucuronidase: control incubation, no enzyme
Description: β-glucuronidase derived from E. Coli, glucurase at a concentration of 5,000 units/ml and bovine serum albumin were obtained from Sigma (St. Louis, Mo.). Glu A and Glu B were incubated at a concentration of 500 μM with β-glucuronidase ([…]) in 100 mM potassium acetate buffer solution in a 0.5 ml filter tube. The incubations were run in triplicate.
To each filter tube, 65 μl of 100 mM potassium acetate buffer, 5 μl of bovine serum albumin, and 100 μl of glucurase were added (100 mM potassium acetate was added to the control wells). The pH was adjusted to either pH 5.0 using 1N potassium hydroxide. 10 μl of 10 mM GluA or GluB were then added and the filter tubes were incubated for 30 minutes, 60 minutes or 18 hours at 37° C. Following incubation 20 μl of acetonitrile was added to the filter tubes and the filter tubes were centrifuged. The resulting filtrate was then analyzed by HPLC.
Glu A (500 μM) and Glu B (500 μM) were incubated with β-glucuronidase at 37° C. in pH 5.0 and pH 7.4 buffers. The pH 7.4 buffer is representative of the in vivo pH range in the GI tract. The results of each treatment are shown in Tables 5 (pH 5.0) and Table 6 (pH 7.4).
Glu A was prepared fresh in these experiments. A time-dependent incubation of Glu A and Glu B was carried out for 2, 4 and 6 hours.

Stability in DMSO = type: physicochemical; details: especially after freezing and thawing
[3] = Compound 1 10 mg/kg intracolonic with β-glucuronidase
[4] = Compound 1 10 mg/kg intracolonic without enzyme

COc1cc2c(cc1OC)-c1nn(C3OC(C(=O)O)C(O)C(O)C3O)c(Nc3cccc(F)c3)c1C2 (stereo in doubt) [Cpd 1-GluB]
AUC [1, 3]: 176 ± 123 ng·h/mL | Cmax [1, 3]: 79.4 ± 47.3 ng/mL | AUC [1, 4]: 499 ± 137 ng·h/mL | Cmax [1, 4]: 140 ± 56.9 ng/mL | concentration at 0 h [1, 3]: 0 ng/mL | concentration at 0.25 h [1, 3]: 508 ± 342 ng/mL | concentration at 0.5 h [1, 3]: 503 ± 363 ng/mL | concentration at 1 h [1, 3]: 676 ± 586 ng/mL | concentration at 2 h [1, 3]: 275 ± 260 ng/mL | concentration at 3 h [1, 3]: 271 ± 181 ng/mL | concentration at 4 h [1, 3]: 194 ± 165 ng/mL | concentration at 5 h [1, 3]: 146 ± 84.4 ng/mL | concentration at 6 h [1, 3]: 119 ± 108 ng/mL | concentration at 0 h [1, 4]: 0 ng/mL | concentration at 0.25 h [1, 4]: 70.2 ± 29.3 ng/mL | concentration at 0.5 h [1, 4]: 72.4 ± 28.2 ng/mL | concentration at 1 h [1, 4]: 51.2 ± 24.9 ng/mL | concentration at 2 h [1, 4]: 13.5 ± 5.5 ng/mL | concentration at 3 h [1, 4]: 7.1 ± 5 ng/mL | concentration at 4 h [1, 4]: 9.6 ± 6.7 ng/mL | concentration at 5 h [1, 4]: 9.2 ± 4.1 ng/mL | concentration at 6 h [1, 4]: 10.4 ± 4 ng/mL | AUC average ± standard deviation 0 to 6 hours [1, 3]: 175.9 ± 123.1 ng·h/mL | AUC average ± standard deviation 0 to 6 hours [1, 4]: 498.7 ± 137.2 ng·h/mL | Glucuronide remaining ([2]; pH 5.0, 0 hr): 100% Glu-B | Glucuronide remaining ([2]; pH 5.0, 0.5 hrs): 100% Glu-B | Glucuronide remaining ([2]; pH 5.0, 1 hr): 100% Glu-B | Glucuronide remaining ([2]; pH 7.4, 0 hr): 100% Glu-B | Glucuronide remaining ([2]; pH 7.4, 2 hrs): 100% Glu-B | Glucuronide remaining ([2]; pH 7.4, 4 hrs): 100% Glu-B | Stability in control samples without β-glucuronidase [2]: stable

COc1cc2c(cc1OC)-c1n[nH]c(N(c3cccc(F)c3)[C@H]3O[C@@H](C(=O)O)[C@H](O)[C@@H](O)[C@@H]3O)c1C2 [Cpd 1-GluA]
Stability in DMSO (Stability in DMSO): relatively unstable | AUC [1, 3]: 1770 ng·h/mL | Cmax [1, 3]: 755 ± 509 ng/mL | AUC [1, 4]: 5060 ng·h/mL | Cmax [1, 4]: 1550 ± 1050 ng/mL | concentration at 0 h [1, 3]: 0 ng/mL | concentration at 0.25 h [1, 3]: 6450 ng/mL | concentration at 0.5 h [1, 3]: 4820 ng/mL | concentration at 1 h [1, 3]: 3860 ng/mL | concentration at 2 h [1, 3]: 812 ± 426 ng/mL | concentration at 3 h [1, 3]: 462 ± 208 ng/mL | concentration at 4 h [1, 3]: 480 ± 107 ng/mL | concentration at 5 h [1, 3]: 420 ± 74.1 ng/mL | concentration at 6 h [1, 3]: 462 ± 113 ng/mL | concentration at 0 h [1, 4]: 0 ng/mL | concentration at 0.25 h [1, 4]: 666 ± 198 ng/mL | concentration at 0.5 h [1, 4]: 6450 ng/mL | concentration at 1 h [1, 4]: 4820 ng/mL | concentration at 2 h [1, 4]: 3860 ng/mL | concentration at 3 h [1, 4]: 66.6 ± 42 ng/mL | concentration at 4 h [1, 4]: 88.2 ± 53.9 ng/mL | concentration at 5 h [1, 4]: 83.1 ± 23.2 ng/mL | concentration at 6 h [1, 4]: 90.2 ± 28.1 ng/mL | AUC intracolonic relative to intraduodenal ([1]; no enzyme present): 4.3 times | AUC average ± standard deviation 0 to 6 hours [1, 3]: 1,767.6 ± 1,282.3 ng · hr/ml | AUC average ± standard deviation 0 to 6 hours [1, 4]: 5061.9 ± 1,656.0 ng · hr/ml | Glucuronide remaining ([2]; pH 5.0, 0 hr): 100% Glu-A | Glucuronide remaining ([2]; pH 5.0, 0.5 hrs): 60% Glu-A | Glucuronide remaining ([2]; pH 5.0, 1 hr): 34% Glu-A | Glucuronide remaining ([2]; pH 5.0, 18 hrs): 0% Glu-A | Glucuronide remaining ([2]; pH 7.4, 0 hr): 100% Glu-A | Glucuronide remaining ([2]; pH 7.4, 2 hrs): 67% Glu-A | Glucuronide remaining ([2]; pH 7.4, 4 hrs): 48% Glu-A | Glucuronide remaining ([2]; pH 7.4, 6 hrs): 23% Glu-A | Stability in control samples without β-glucuronidase [2]: stable
